Among the data in the supplement of paper PMC12076712 are pIC50 values, retold here.

Usually pIC50 stands for −log10 of the IC50, conventionally taken in molar units.

SMILES strings stand for the structures.

Test in all cases: pIC50, kinobeads binding competition
The target in one test is PRKCQ (UniProt Q04759). In a few lines: (§1)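 Either living Jurkat cells (60 min at 37 °C, then lysis) or lysates (60 min at 4 °C) were treated with nine compound concentrations from a top of 30 μM, in 1:4 steps for cells and 1:5 steps for lysates. The lysates were from Jurkat cells or a 1:1:1:1 mix of HEK293, K-562, HepG2 and placenta. Kinobeads-bound proteins were digested and quantified by TMT10 LC-MS/MS. pIC50 was calculated by logistic dose-response fitting (R drc package) of fold changes relative to vehicle, in biological duplicates.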

In another test the target is ACVR2A (UniProt P27037). Particulars: cell material: Lysate mix. Put shortly:
as §1

The next test concerns the target T1, UniProt P45985.
T1 sequence (whole entry): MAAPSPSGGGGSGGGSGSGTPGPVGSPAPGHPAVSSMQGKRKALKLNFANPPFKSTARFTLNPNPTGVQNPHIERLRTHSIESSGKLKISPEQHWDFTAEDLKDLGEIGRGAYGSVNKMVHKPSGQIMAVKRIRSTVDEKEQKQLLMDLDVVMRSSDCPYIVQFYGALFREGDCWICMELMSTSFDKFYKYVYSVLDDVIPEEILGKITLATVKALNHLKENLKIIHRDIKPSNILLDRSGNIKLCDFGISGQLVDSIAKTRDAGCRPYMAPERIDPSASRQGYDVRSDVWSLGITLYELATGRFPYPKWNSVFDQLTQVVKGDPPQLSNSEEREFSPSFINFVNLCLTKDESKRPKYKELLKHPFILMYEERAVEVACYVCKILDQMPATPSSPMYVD
In a few lines:
as §1

The target in the next test is MAST3 (UniProt O60307). In a few lines: as §1
The next test has as its target T2, DYRK2 (UniProt Q92630).
T2 sequence (whole entry): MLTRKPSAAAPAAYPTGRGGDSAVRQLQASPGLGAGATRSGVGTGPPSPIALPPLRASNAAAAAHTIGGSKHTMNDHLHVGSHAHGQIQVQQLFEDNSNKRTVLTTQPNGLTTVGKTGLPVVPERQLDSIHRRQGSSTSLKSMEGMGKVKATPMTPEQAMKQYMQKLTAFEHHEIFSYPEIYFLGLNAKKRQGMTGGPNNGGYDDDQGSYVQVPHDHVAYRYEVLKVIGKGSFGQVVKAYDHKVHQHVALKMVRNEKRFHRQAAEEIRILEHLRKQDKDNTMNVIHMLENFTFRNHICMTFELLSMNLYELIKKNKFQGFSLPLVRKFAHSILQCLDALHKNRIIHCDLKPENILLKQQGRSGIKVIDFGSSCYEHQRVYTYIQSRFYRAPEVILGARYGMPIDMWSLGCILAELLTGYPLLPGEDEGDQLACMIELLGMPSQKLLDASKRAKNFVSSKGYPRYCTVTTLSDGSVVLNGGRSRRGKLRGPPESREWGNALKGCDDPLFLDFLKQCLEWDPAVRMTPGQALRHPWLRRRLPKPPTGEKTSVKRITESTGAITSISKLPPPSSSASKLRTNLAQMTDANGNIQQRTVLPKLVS
Put shortly: as §1

The next test concerns the target PRKAA2 (UniProt P54646). Particulars: cell material: Lysate mix. In a few lines:
as §1

In a further test the target is FER (UniProt P16591). In a few lines: as §1
Another test has as its target UniProt O94804. Put shortly:
as §1

Another test concerns the target T3, PRKG1 (UniProt Q13976).
T3 sequence (whole entry): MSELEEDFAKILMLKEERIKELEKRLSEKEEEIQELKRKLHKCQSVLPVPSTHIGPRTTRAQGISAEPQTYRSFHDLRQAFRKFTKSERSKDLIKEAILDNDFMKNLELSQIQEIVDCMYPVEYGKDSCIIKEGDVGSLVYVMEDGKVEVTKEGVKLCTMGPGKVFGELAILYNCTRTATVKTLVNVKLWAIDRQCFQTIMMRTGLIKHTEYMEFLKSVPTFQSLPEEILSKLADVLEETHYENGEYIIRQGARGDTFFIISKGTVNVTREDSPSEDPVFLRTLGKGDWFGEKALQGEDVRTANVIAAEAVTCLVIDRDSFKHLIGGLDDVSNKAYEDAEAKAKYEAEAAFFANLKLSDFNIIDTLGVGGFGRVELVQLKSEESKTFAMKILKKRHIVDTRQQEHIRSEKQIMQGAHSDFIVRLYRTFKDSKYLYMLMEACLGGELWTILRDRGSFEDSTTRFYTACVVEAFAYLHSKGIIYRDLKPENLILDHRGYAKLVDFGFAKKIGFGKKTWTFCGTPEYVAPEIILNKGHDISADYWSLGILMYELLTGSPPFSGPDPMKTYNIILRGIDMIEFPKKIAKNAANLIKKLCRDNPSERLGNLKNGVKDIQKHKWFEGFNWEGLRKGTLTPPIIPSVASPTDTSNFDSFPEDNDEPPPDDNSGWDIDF
Particulars: cell material: Lysate mix. In a few lines: as §1

The next test deals with UniProt P19784. In a few lines: as §1
The target in another test is UniProt Q15208. In a few lines: as §1
A further test addresses HIPK2 (UniProt Q9H2X6). Put shortly:
as §1

For `C#CCNC(=O)c1cc(Nc2cc(C)[nH]n2)nc(N2CCN(Cc3ccc(S(=O)(=O)F)cc3)CC2)n1`, the negative-log IC50 (pIC50) was less than 4.52 at PRKCQ (cell material: Lysate mix); less than 4.52 on ACVR2A; less than 4.52 at UniProt P45985 (cell material: Lysate mix); 6.16 on MAST3 (cell material: Lysate mix); less than 4.52 on DYRK2 (cell material: Lysate mix); 6.53 on PRKAA2. The negative logarithm of the IC50 (pIC50) on FER (cell material: Lysate mix) is 4.78; on UniProt O94804 (cell material: Lysate mix) it was less than 4.52; at PRKG1, less than 4.52; on UniProt P19784 (cell material: Lysate mix), 4.78; on UniProt Q15208 (cell material: Lysate mix), 5; at HIPK2 (cell material: Lysate mix) it was 4.98.
As to `O=C(NCCNC(=O)c1cc(Nc2cc(C3CC3)[nH]n2)nc(N2CCN(Cc3ccc(S(=O)(=O)F)cc3)CC2)n1)OC1CC/C=C/CCC1` (stereo not given), the negative logarithm of the IC50 (pIC50) was less than 4.52 on PRKCQ (cell material: Jurkat lysate); less than 4.52 at PRKCQ (cell material: Lysate mix); less than 4.52 at ACVR2A; less than 4.52 at UniProt P45985 (cell material: Jurkat lysate); less than 4.52 on UniProt P45985 (cell material: Lysate mix); 6.5 on MAST3 (cell material: Jurkat cells). Also, the pIC50 on MAST3 (cell material: Jurkat lysate) was 5.06; at MAST3 (cell material: Lysate mix), 4.9; on DYRK2 (cell material: Jurkat cells) it was less than 4.52; on DYRK2 (cell material: Jurkat lysate) it was less than 4.52; at DYRK2 (cell material: Lysate mix), less than 4.52; on PRKAA2 it was 5.5. Moreover, the pIC50 at FER (cell material: Jurkat cells) is 5.6; at FER (cell material: Jurkat lysate), less than 4.52; at FER (cell material: Lysate mix), less than 4.52; on UniProt O94804 (cell material: Jurkat cells), less than 4.52; on UniProt O94804 (cell material: Jurkat lysate) it was less than 4.52; at UniProt O94804 (cell material: Lysate mix) it was less than 4.52. Further, the pIC50 at PRKG1 was less than 4.52; at UniProt P19784 (cell material: Jurkat cells) it was 4.7; at UniProt P19784 (cell material: Jurkat lysate) it was less than 4.52; at UniProt P19784 (cell material: Lysate mix), less than 4.52; on UniProt Q15208 (cell material: Jurkat cells), 6.33; at UniProt Q15208 (cell material: Jurkat lysate) it was 4.8. In addition, the negative logarithm of the IC50 (pIC50) is 5.11 on UniProt Q15208 (cell material: Lysate mix), 5.49 at HIPK2 (cell material: Jurkat cells), less than 4.52 at HIPK2 (cell material: Jurkat lysate) and less than 4.52 at HIPK2 (cell material: Lysate mix).
Regarding `CCNC(=O)c1cc(Nc2cc(C3CC3)[nH]n2)nc(N2CCN(Cc3ccc(S(=O)(=O)F)cc3)CC2)n1`, the pIC50 at PRKCQ (cell material: Lysate mix) was less than 4.52; on ACVR2A, less than 4.52; at UniProt P45985 (cell material: Lysate mix) it was 4.88; at MAST3 (cell material: Lysate mix), 6.22; at DYRK2 (cell material: Lysate mix) it was 4.65; at PRKAA2 it was 7.04. For the same compound, the pIC50 is 5.62 at FER (cell material: Lysate mix); less than 4.52 at UniProt O94804 (cell material: Lysate mix); less than 4.52 at PRKG1; 5.47 on UniProt P19784 (cell material: Lysate mix); 5.83 on UniProt Q15208 (cell material: Lysate mix); 5.72 on HIPK2 (cell material: Lysate mix).
For `Cc1cc(Nc2cc(C(=O)NCCNC(=O)OC3CC/C=C/CCC3)nc(N3CCN(Cc4ccc(S(=O)(=O)F)cc4)CC3)n2)n[nH]1` (stereo not given), the negative logarithm of the IC50 (pIC50) is less than 4.52 on PRKCQ (cell material: Lysate mix); less than 4.52 on ACVR2A; less than 4.52 at UniProt P45985 (cell material: Lysate mix); 4.84 at MAST3 (cell material: Lysate mix); less than 4.52 on DYRK2 (cell material: Lysate mix); 5.31 at PRKAA2. Besides, the negative logarithm of the IC50 (pIC50) at FER (cell material: Lysate mix), on UniProt O94804 (cell material: Lysate mix), at PRKG1, on UniProt P19784 (cell material: Lysate mix), at UniProt Q15208 (cell material: Lysate mix) and at HIPK2 (cell material: Lysate mix) was less than 4.52 each time.
With `CCNC(=O)c1cc(Nc2cc(C)[nH]n2)nc(N2CCN(Cc3ccc(S(=O)(=O)F)cc3)CC2)n1`, the negative-log IC50 (pIC50) was less than 4.52 at PRKCQ (cell material: Lysate mix); less than 4.52 on ACVR2A; less than 4.52 on UniProt P45985 (cell material: Lysate mix); 6.39 on MAST3 (cell material: Lysate mix); less than 4.52 on DYRK2 (cell material: Lysate mix); 7.35 on PRKAA2. Moreover, the negative-log IC50 (pIC50) on FER (cell material: Lysate mix) was 4.72; on UniProt O94804 (cell material: Lysate mix) it was less than 4.52; on PRKG1, less than 4.52; on UniProt P19784 (cell material: Lysate mix) it was 5.1; on UniProt Q15208 (cell material: Lysate mix), 4.8; on HIPK2 (cell material: Lysate mix) it was 4.77.
Take `C#CCNC(=O)c1cc(Nc2cc(C3CC3)[nH]n2)nc(N2CCN(Cc3ccc(S(=O)(=O)F)cc3)CC2)n1`: the pIC50 at PRKCQ (cell material: Jurkat cells) was 5.42; at PRKCQ (cell material: Jurkat lysate), less than 4.52; at PRKCQ (cell material: Lysate mix) it was less than 4.52; on ACVR2A, less than 4.52; on UniProt P45985 (cell material: Jurkat cells), 5.86; at UniProt P45985 (cell material: Jurkat lysate), less than 4.52. Further, the pIC50 at UniProt P45985 (cell material: Lysate mix) was 4.82; at MAST3 (cell material: Jurkat cells) it was 6.54; at MAST3 (cell material: Jurkat lysate), 6.27; at MAST3 (cell material: Lysate mix) it was 6.56; at DYRK2 (cell material: Jurkat cells), less than 4.52; on DYRK2 (cell material: Jurkat lysate), less than 4.52. For the same compound, the negative logarithm of the IC50 (pIC50) at PRKAA2 is 7.31; at FER (cell material: Jurkat cells), 6.2; on FER (cell material: Jurkat lysate), 5.44; at FER (cell material: Lysate mix), 5.92; on UniProt O94804 (cell material: Jurkat cells), 5.04; at UniProt O94804 (cell material: Jurkat lysate), less than 4.52. Further, the negative logarithm of the IC50 (pIC50) was less than 4.52 at UniProt O94804 (cell material: Lysate mix); less than 4.52 on PRKG1; 5.66 on UniProt P19784 (cell material: Jurkat cells); less than 4.52 on UniProt P19784 (cell material: Jurkat lysate); 4.96 on UniProt P19784 (cell material: Lysate mix); 6.44 on UniProt Q15208 (cell material: Jurkat cells). Besides, the pIC50 came to 5.44 on UniProt Q15208 (cell material: Jurkat lysate); 6.2 at UniProt Q15208 (cell material: Lysate mix); 6.12 at HIPK2 (cell material: Jurkat cells); 5.54 at HIPK2 (cell material: Jurkat lysate); 5.92 on HIPK2 (cell material: Lysate mix).
